# Laboratory results as given in ChEMBL document CHEMBL1201862, “PubChem BioAssay data set” (2004).
#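 48-hour exposure; five concentrations; linearly interpolated endpoints. GI50 = concentration required for 50% inhibition of growth.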 The source made the active and inactive calls. Cut-off read from the data, not from the text of the source: active = GI50 up to about 1.1 µM and inactive = higher.
# Assays:
# Assay in all cases: DTP human tumour cell line panel, 48 h
# [1] = system: MDA-MB-435
# [2] = system: SF-539
# [3] = system: NCI-H460
# [4] = system: SK-MEL-28
# [5] = system: KM12
# [6] = system: SNB-75
# [7] = system: RXF 393
# [8] = system: UACC-62
# [9] = system: A549
# [10] = system: MDA-N
# [11] = system: IGROV-1
# [12] = system: RPMI-8226
# [13] = system: OVCAR-4
# [14] = system: T47D
# [15] = system: UO-31
# [16] = system: 786-0
# [17] = system: UACC-257
# [18] = system: HOP-62
# [19] = system: COLO 205
# [20] = system: PC-3
SMILES,GI50 [1],GI50 [2],GI50 [3],GI50 [4],GI50 [5],GI50 [6],GI50 [7],GI50 [8],GI50 [9],GI50 [10],GI50 [11],GI50 [12],GI50 [13],GI50 [14],GI50 [15],GI50 [16],GI50 [17],GI50 [18],GI50 [19],GI50 [20]
CC(NC(=O)c1ccccc1)(C(=O)O)C(=O)O,> 100 µM (inactive),> 100 µM (inactive),> 100 µM (inactive),> 100 µM (inactive),> 100 µM (inactive),> 100 µM (inactive),> 100 µM (inactive),> 100 µM (inactive),> 100 µM (inactive),> 100 µM (inactive),> 100 µM (inactive),> 100 µM (inactive),> 100 µM (inactive),> 100 µM (inactive),> 100 µM (inactive),> 100 µM (inactive),> 100 µM (inactive),> 100 µM (inactive),> 100 µM (inactive),> 100 µM (inactive)
COc1ccc(C2c3cc4c(cc3OC(N3CCOCC3)C2C)OCO4)c(OC)c1 (centres undefined),2.14 µM (inactive),3.05 µM (inactive),5.12 µM (inactive),8.49 µM (inactive),4.94 µM (inactive),3.95 µM (inactive),2.94 µM (inactive),5.56 µM (inactive),7.43 µM (inactive),1.64 µM (inactive),7.59 µM (inactive),3.15 µM (inactive),10 µM (inactive),5.83 µM (inactive),9.06 µM (inactive),4.63 µM (inactive),6.3 µM (inactive),5.06 µM (inactive),9.33 µM (inactive),7.6 µM (inactive)
CC(=O)OC(C)C1C2=C(C(=O)CC1(C)O)C(=O)c1c(ccc(-c3ccc4c(c3O)C(=O)C3=C(C4=O)C(C(C)OC(C)=O)C(C)(O)CC3=O)c1O)C2=O (centres undefined),2.14 µM (inactive),1.92 µM (inactive),6.58 µM (inactive),2.12 µM (inactive),3.19 µM (inactive),2.49 µM (inactive),1.74 µM (inactive),1.69 µM (inactive),5.47 µM (inactive),3.15 µM (inactive),9.12 µM (inactive),0.483 µM (active),2.24 µM (inactive),0.78 µM (active),3.35 µM (inactive),1.83 µM (inactive),1.75 µM (inactive),18.5 µM (inactive),0.692 µM (active),3.1 µM (inactive)
O=Cc1[nH]c(=O)[nH]c(=O)c1CCl,> 100 µM (inactive),> 63.2 µM (inactive),> 55.8 µM (inactive),> 100 µM (inactive),> 100 µM (inactive),10.9 µM (inactive),71.6 µM (inactive),> 96.4 µM (inactive),> 100 µM (inactive),> 100 µM (inactive),> 100 µM (inactive),> 48.6 µM (inactive),> 60.5 µM (inactive),> 100 µM (inactive),> 100 µM (inactive),74.8 µM (inactive),> 100 µM (inactive),> 100 µM (inactive),> 62.7 µM (inactive),> 100 µM (inactive)
CC(=O)c1ccc2c(c1)CC1(C2)Cc2ccc3c(c2C1=O)CCC3 (centres undefined),17.9 µM (inactive),27.7 µM (inactive),29.3 µM (inactive),20.3 µM (inactive),28.2 µM (inactive),20 µM (inactive),24.7 µM (inactive),22.1 µM (inactive),23.4 µM (inactive),21.8 µM (inactive),55.2 µM (inactive),16.1 µM (inactive),19.2 µM (inactive),12.5 µM (inactive),28.4 µM (inactive),17.6 µM (inactive),10.8 µM (inactive),38.9 µM (inactive),18.3 µM (inactive),21.6 µM (inactive)
CC(C)OC(=O)[C@@H]1OC(C)(C)O[C@H]1C(=O)OC(C)C,> 100 µM (inactive),> 100 µM (inactive),> 100 µM (inactive),–,> 100 µM (inactive),> 100 µM (inactive),> 100 µM (inactive),> 100 µM (inactive),> 100 µM (inactive),> 100 µM (inactive),> 100 µM (inactive),> 100 µM (inactive),> 100 µM (inactive),> 100 µM (inactive),> 100 µM (inactive),> 100 µM (inactive),> 100 µM (inactive),> 100 µM (inactive),> 100 µM (inactive),> 100 µM (inactive)
COc1cc(/C=C2\C(=O)N(c3ccc(NC(C)=O)cc3)C(c3ccccc3)S2(=O)=O)cc(OC)c1OC (centres undefined),92.9 µM (inactive),> 100 µM (inactive),> 100 µM (inactive),> 100 µM (inactive),> 100 µM (inactive),43.6 µM (inactive),> 100 µM (inactive),> 100 µM (inactive),> 100 µM (inactive),79.6 µM (inactive),> 100 µM (inactive),60.8 µM (inactive),60.8 µM (inactive),28.6 µM (inactive),66.5 µM (inactive),> 100 µM (inactive),> 100 µM (inactive),> 100 µM (inactive),> 100 µM (inactive),48.4 µM (inactive)
CC1(C)CCC(=O)NC1CC(=O)CC1NC(=O)CCC1(C)C (centres undefined),> 100 µM (inactive),> 100 µM (inactive),> 100 µM (inactive),> 100 µM (inactive),> 100 µM (inactive),> 100 µM (inactive),> 100 µM (inactive),> 100 µM (inactive),> 100 µM (inactive),> 100 µM (inactive),> 100 µM (inactive),> 100 µM (inactive),> 100 µM (inactive),> 100 µM (inactive),> 100 µM (inactive),> 100 µM (inactive),> 100 µM (inactive),> 100 µM (inactive),> 100 µM (inactive),> 100 µM (inactive)
COCCOCCOC1=CC(=O)c2c(O)ccc(O)c2C1=O,0.0278 µM (active),2.07 µM (inactive),1.91 µM (inactive),1.54 µM (inactive),1.83 µM (inactive),1.82 µM (inactive),2.07 µM (inactive),1.45 µM (inactive),1.75 µM (inactive),0.153 µM (active),1.82 µM (inactive),1.37 µM (inactive),1.73 µM (inactive),1.82 µM (inactive),1.62 µM (inactive),1.8 µM (inactive),0.397 µM (active),1.71 µM (inactive),0.296 µM (active),2.48 µM (inactive)
Nc1ncnc2c1ncn2[C@@H]1C[C@H](NO)[C@@H](O)[C@H]1O,> 100 µM (inactive),33.5 µM (inactive),> 100 µM (inactive),> 100 µM (inactive),9.25 µM (inactive),> 100 µM (inactive),> 100 µM (inactive),> 100 µM (inactive),> 100 µM (inactive),> 100 µM (inactive),> 100 µM (inactive),10.8 µM (inactive),> 100 µM (inactive),> 100 µM (inactive),7.33 µM (inactive),> 100 µM (inactive),> 100 µM (inactive),> 100 µM (inactive),> 100 µM (inactive),> 100 µM (inactive)
Oc1ccccc1/C=N/c1nc2cc3sc(/N=C/c4ccccc4O)nc3cc2s1,> 95.9 µM (inactive),> 85.5 µM (inactive),4.61 µM (inactive),> 100 µM (inactive),> 66.8 µM (inactive),> 78 µM (inactive),> 32.7 µM (inactive),> 100 µM (inactive),6.98 µM (inactive),> 100 µM (inactive),60 µM (inactive),> 35.3 µM (inactive),69.7 µM (inactive),> 61.1 µM (inactive),> 35.9 µM (inactive),> 81.1 µM (inactive),> 100 µM (inactive),> 80.4 µM (inactive),3.3 µM (inactive),> 89.3 µM (inactive)
CCN(CC)CCN1CCN=c2c3cc(OC)ccc3n3cnc4ccc1c2c43,0.522 µM (active),0.323 µM (active),0.199 µM (active),1.5 µM (inactive),0.367 µM (active),0.714 µM (active),0.292 µM (active),1.71 µM (inactive),0.425 µM (active),0.49 µM (active),0.357 µM (active),0.305 µM (active),0.274 µM (active),5.52 µM (inactive),1.41 µM (inactive),0.272 µM (active),1.29 µM (inactive),0.979 µM (active),0.362 µM (active),0.391 µM (active)
C=C(Cl)C(Cl)(CBr)CCCC(C)(C)Cl (centres undefined),27.2 µM (inactive),2.47 µM (inactive),5.71 µM (inactive),11.7 µM (inactive),1.7 µM (inactive),4.48 µM (inactive),17.7 µM (inactive),17.4 µM (inactive),14.6 µM (inactive),28.1 µM (inactive),33.3 µM (inactive),1.28 µM (inactive),2.55 µM (inactive),1.8 µM (inactive),14.5 µM (inactive),5.04 µM (inactive),3.15 µM (inactive),4.26 µM (inactive),7.5 µM (inactive),3.25 µM (inactive)
O=C(/C=C/c1ccc(O)c(O)c1)NC(COC(=O)/C=C/c1ccc(O)c(O)c1)C(=O)O (centres undefined),> 100 µM (inactive),> 100 µM (inactive),> 100 µM (inactive),> 100 µM (inactive),> 100 µM (inactive),> 100 µM (inactive),> 100 µM (inactive),> 100 µM (inactive),> 100 µM (inactive),> 100 µM (inactive),> 100 µM (inactive),> 100 µM (inactive),> 100 µM (inactive),> 100 µM (inactive),> 100 µM (inactive),> 100 µM (inactive),> 100 µM (inactive),> 100 µM (inactive),> 100 µM (inactive),> 100 µM (inactive)
